Reference: US11040036B2, “Pyruvate kinase activators for use in treating blood disorders” (Agios Pharmaceuticals, Inc., priority 2017, dated 2021)

What was measured:
PKR R510Q = PKR R510Q (Homo sapiens, UniProt P30613, R510Q); assay: PKR mutant assay (AC50), PKR R510Q; type: biochemical; settings: PKR R510Q mutant enzyme; read-out: PK R510Q AC50
Procedure: (§1) Example 11. PKR Mutant Assay
(§2) PKR or PKR mutant enzyme solution was diluted into a reaction mix, which contains 1× buffer (100 mM KCl, 50 mM Tris pH 7.5, 5 mM MgCl2) as well as PEP (cont depends on enzyme), 180 μM NADH, 0.5 units LDH, 1 mM DTT, 0.03% BSA; final assay concentrations after 1.11 fold dilution are indicated.
(§3) 2 μL of test compound was added into wells first, and then 180 μL reaction mix was added.
(§4) Reactions mixture with test compound was assembled except for ADP, and plates were stored for 60 minutes at room temperature.
(§5) 20 uL ADP was added to start reaction at room temperature and reaction progress was measured as changes in absorbance at 340 nm wavelength at room temperature.
(§6) Test Compound Preparation:
(§7) Test compound stock was made at 100× concentration in 100% DMSO (10 mM)
(§8) 1 to 3 dilutions were made for 11 points (i.e. 50 μl of first concentration added to 100 μl 100% DMSO to yield 3.33 mM, 50 μl of this added to 100 μl DMSO to yield 1.11 mM, and so forth) • 1 to 100 dilution into assay (2 μl in 200 μl) yielded starting concentration of 100 μM, decreasing 3 fold for 11 points.
(§9) Assay Buffer: 100 mM KCl, 50 mM Tris 7.5, 5 mM MgCl2, 1 ruM DTT, 0.03% BSA
(§10) Reaction Mixture: PKR mutant enzyme: 40-400 ng/well; ADP: 0.2-1.65 mM; PEP: 0.1-0.5 mM; NADH:180 μM; LDH: 0.5 units (Sigma #59023); DTT: 1 mM; BSA: 0.03%.

wild type PKR [1] = target: T1, wild type PKR (Homo sapiens, UniProt P30613); assay: PKR mutant assay (AC50), wild type PKR; type: biochemical; settings: wild type PKR enzyme; read-out: PKR WT AC50
Procedure: as §1, §2, §3, §4, §5, §6, §7, §8, §9, §10

wild type PKR [2] = target: T1, wild type PKR; assay: Cell based ATP assay in purified red blood cells; parameters: endogenous in cells; host or cells: purified red blood cells from blood of healthy volunteers; settings: RBCs, overnight at 37° C., ATP levels by Cell-Titer-Glo
Procedure: Example 16. Red Blood Cell (RBC) Purification
Fresh blood drawn from healthy volunteers into K2EDTA tubes was collected. Whole blood was pelleted by spinning at 500 g for 10 minutes. Cut transfusion bag port off of Purecell leukocyte reduction neofilter (Fisher NCO267633) one (1) inch above filter. Attach a 10 ml syringe barrel to the remaining cut tubing attached to neofilter. The plasma layer was removed from the pellet of the whole blood and the pellet was resuspended in 2× volume of phosphate buffered saline (PBS). Transfer 9 ml re-suspended blood cell pellet to prepared 10 ml syringe that is attached to the neofilter. Allow whole blood to gravity flow through filter until all fluid runs through upper tubing into filter disc. Add plunger to the syringe, remove syringe from clamp and invert the filter, then plunge air through the syringe filter system. Using a new 5 ml syringe, remove filtered RBCs from the bag by the syringe port and transfer purified RBCs to a 5 ml snap cap tube that has been incubated on ice. Spin 5 ml snap cap tube at 500 g for 10 minutes at 15 C, aspirate supernatant and resuspend in AGAM (1×PBS, 1% glucose, 170 mg/L adenine, 5.25 g/L mannitol) at a density of 4×10^9 cells/mL.
Example 17. Cell Based ATP Assay
For cell based ATP assays, the compound as described herein was prepared in 100% DMSO as a 10 mM stock. Serial dilutions (1:4) were performed in 96-well V-bottom storage plate and then added 1:100 to 96-well V-bottom plates containing AGAM. RBCs were diluted in AGAM media to a density of 1×10^7 cells/mL before added 90 μL/well to black clear bottom assay plates (final compound concentration at 0.1% DMSO concentration). Assay plates were sealed using aluminum foil seals and incubated overnight at 37° C. in a humidified chamber. ATP levels were read out using Cell-Titer-Glo (Promega).

PKR K410E = PKR K410E (Homo sapiens, UniProt P30613, K410E); assay: PKR mutant assay (AC50), PKR K410E; type: biochemical; settings: PKR K410E mutant enzyme
Procedure: as §1, §2, §3, §4, §5, §6, §7, §8, §9, §10

Chain of PKR R510Q (P30613 whole entry R510Q): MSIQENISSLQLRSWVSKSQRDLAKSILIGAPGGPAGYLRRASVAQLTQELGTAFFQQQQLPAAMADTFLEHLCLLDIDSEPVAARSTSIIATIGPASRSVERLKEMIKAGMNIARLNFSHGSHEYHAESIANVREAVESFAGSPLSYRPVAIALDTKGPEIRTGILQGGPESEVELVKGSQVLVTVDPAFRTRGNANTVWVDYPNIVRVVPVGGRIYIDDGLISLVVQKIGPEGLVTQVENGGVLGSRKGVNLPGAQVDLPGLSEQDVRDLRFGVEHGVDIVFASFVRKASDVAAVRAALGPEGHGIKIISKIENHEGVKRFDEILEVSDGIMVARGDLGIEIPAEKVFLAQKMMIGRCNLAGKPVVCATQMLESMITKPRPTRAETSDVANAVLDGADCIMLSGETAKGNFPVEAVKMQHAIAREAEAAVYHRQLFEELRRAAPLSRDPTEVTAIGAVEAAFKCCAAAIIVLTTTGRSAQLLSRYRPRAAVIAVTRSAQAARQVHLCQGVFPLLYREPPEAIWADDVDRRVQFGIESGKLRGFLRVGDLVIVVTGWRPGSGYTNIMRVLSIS
T1 sequence (P30613 whole entry): as the sequence (P30613 whole entry R510Q) above, with Q510R counted along it
Chain of PKR K410E (P30613 whole entry K410E): as the sequence (P30613 whole entry R510Q) above, with K410E, Q510R counted along it

AC50 (PKR R510Q) [µM] | AC50 (wild type PKR [1]) [µM] | AC50 (wild type PKR [2]) [µM] | AC50 (PKR K410E) [µM] | Compound
< 0.3 | < 0.3 | ≤ 1 | < 0.3 | Cn1c2nc(Cc3cc[nH]n3)sc2c2cnn(Cc3nccs3)c(=O)c21
< 0.3 | < 0.3 | ≤ 1 | < 0.3 | Cn1c2nc(Cc3cc[nH]n3)sc2c2cnn(Cc3ncsc3Br)c(=O)c21
< 0.3 | < 0.3 | ≤ 1 | < 0.3 | Cn1ccc(Cn2ncc3c4sc(Cc5cc[nH]n5)nc4n(C)c3c2=O)n1
< 0.3 | < 0.3 | ≤ 1 | < 0.3 | Cn1c2nc(Cc3cc[nH]n3)sc2c2cnn(Cc3cscn3)c(=O)c21
< 0.3 | < 0.3 | ≤ 1 | < 0.3 | Cn1c2nc(Cc3cc[nH]n3)sc2c2cnn(Cc3ccc[nH]c3=O)c(=O)c21
< 0.3 | < 0.3 | ≤ 1 | < 0.3 | COc1ncccc1Cn1ncc2c3sc(Cc4cc[nH]n4)nc3n(C)c2c1=O
< 0.3 | > 0.8 | > 1 | > 0.8 | CC(=O)Nc1ccc(F)c(Cn2ncc3c4sc(Cc5cc[nH]n5)nc4n(C)c3c2=O)n1
< 0.3 | < 0.3 | ≤ 1 | < 0.3 | COc1ccc(Cn2ncc3c4sc(Cc5cc[nH]n5)nc4n(C)c3c2=O)cn1
< 0.3 | < 0.3 | ≤ 1 | < 0.3 | COc1cc(Cn2ncc3c4sc(Cc5cc[nH]n5)nc4n(C)c3c2=O)ccn1
< 0.3 | < 0.3 | ≤ 1 | < 0.3 | CNc1ccc(F)c(Cn2ncc3c4sc(Cc5cc[nH]n5)nc4n(C)c3c2=O)n1
< 0.3 | < 0.3 | ≤ 1 | < 0.3 | CNc1ccc(F)c(Cc2nc3c(s2)c2cnn(Cc4c[nH]nn4)c(=O)c2n3C)n1
< 0.3 | < 0.3 | ≤ 1 | < 0.3 | Cn1c2nc(Cc3n[nH]cc3F)sc2c2cnn(Cc3n[nH]cc3F)c(=O)c21
< 0.3 | < 0.3 | ≤ 1 | < 0.3 | COc1cccc(Cn2ncc3c4sc(Cc5cc[nH]n5)nc4n(C)c3c2=O)n1
< 0.3 | < 0.3 | ≤ 1 | < 0.3 | Cn1c2nc(Cc3cc[nH]n3)sc2c2cnn(Cc3cccc(NO)n3)c(=O)c21
< 0.3 | < 0.3 | ≤ 1 | < 0.3 | Cn1c2nc(Cc3cc[nH]n3)sc2c2cnn(Cc3cc(F)cc(N)n3)c(=O)c21
< 0.3 | < 0.3 | ≤ 1 | < 0.3 | Cc1ccc(Cn2ncc3c4sc(Cc5cc[nH]n5)nc4n(C)c3c2=O)nc1N
0.301 to 0.8 | < 0.3 | ≤ 1 | < 0.3 | Cn1c2nc(Cc3ccccn3)sc2c2cnn(Cc3ccccn3)c(=O)c21
0.301 to 0.8 | < 0.3 | > 1 | < 0.3 | Cn1c2nc(Cc3cc[nH]n3)sc2c2cnn(Cc3cccc(=O)[nH]3)c(=O)c21
< 0.3 | < 0.3 | ≤ 1 | < 0.3 | Cn1c2nc(Cc3n[nH]cc3F)sc2c2cnn(Cc3c[nH]nn3)c(=O)c21
< 0.3 | < 0.3 | ≤ 1 | < 0.3 | Cn1c2nc(Cn3ccc(N)n3)sc2c2cnn(Cc3cc[nH]n3)c(=O)c21
< 0.3 | < 0.3 | ≤ 1 | < 0.3 | Cn1cc(F)c(Cn2ncc3c4sc(Cc5cc[nH]n5)nc4n(C)c3c2=O)n1

AC50 (PKR R510Q) [µM] | AC50 (wild type PKR [1]) [µM] | AC50 (wild type PKR [2]) [µM] | AC50 (PKR K410E) [µM] | Compound
< 0.3 | < 0.3 | ≤ 1 | < 0.3 | Cn1cc(Cl)c(Cn2ncc3c4sc(Cc5cc[nH]n5)nc4n(C)c3c2=O)n1
< 0.3 | < 0.3 | ≤ 1 | < 0.3 | Cn1c2nc(Cc3ccccn3)sc2c2cnn(Cc3n[nH]cc3F)c(=O)c21
< 0.3 | < 0.3 | ≤ 1 | < 0.3 | Cn1c2nc(Cc3ccccn3)sc2c2cnn(Cc3n[nH]cc3Cl)c(=O)c21
< 0.3 | < 0.3 | ≤ 1 | < 0.3 | Cn1cc(C#N)c(Cn2ncc3c4sc(Cc5cc[nH]n5)nc4n(C)c3c2=O)n1
> 0.8 | > 0.8 | > 1 | 0.301 to 0.8 | Cn1cc(C(N)=O)c(Cn2ncc3c4sc(Cc5cc[nH]n5)nc4n(C)c3c2=O)n1
< 0.3 | < 0.3 | ≤ 1 | < 0.3 | Cn1cc(N)c(Cn2ncc3c4sc(Cc5cc[nH]n5)nc4n(C)c3c2=O)n1
< 0.3 | < 0.3 | ≤ 1 | < 0.3 | Cn1c2nc(Cc3cc[nH]n3)sc2c2cnn(Cc3n[nH]cc3C#N)c(=O)c21
< 0.3 | < 0.3 | ≤ 1 | < 0.3 | Cn1c2nc(Cc3cc[nH]n3)sc2c2cnn(Cc3n[nH]cc3C(N)=O)c(=O)c21
< 0.3 | < 0.3 | ≤ 1 | < 0.3 | Cn1cc(C(F)(F)F)c(Cn2ncc3c4sc(Cc5cc[nH]n5)nc4n(C)c3c2=O)n1
< 0.3 | < 0.3 | ≤ 1 | < 0.3 | COc1cn(C)nc1Cn1ncc2c3sc(Cc4cc[nH]n4)nc3n(C)c2c1=O
< 0.3 | < 0.3 | ≤ 1 | < 0.3 | Cc1c[nH]nc1Cn1ncc2c3sc(Cc4n[nH]cc4F)nc3n(C)c2c1=O
< 0.3 | < 0.3 | ≤ 1 | < 0.3 | Cn1c2nc(Cc3n[nH]cc3F)sc2c2cnn(Cc3cscn3)c(=O)c21
< 0.3 | < 0.3 | ≤ 1 | < 0.3 | Cc1cn(C)nc1Cn1ncc2c3sc(Cc4cc[nH]n4)nc3n(C)c2c1=O
< 0.3 | < 0.3 | ≤ 1 | < 0.3 | Cn1c2nc(Cc3n[nH]cc3F)sc2c2cnn(Cc3n[nH]cc3N)c(=O)c21
< 0.3 | < 0.3 | ≤ 1 | < 0.3 | Cn1cc(CO)c(Cn2ncc3c4sc(Cc5cc[nH]n5)nc4n(C)c3c2=O)n1
< 0.3 | < 0.3 | ≤ 1 | < 0.3 | Cn1c2nc(Cc3cc[nH]n3)sc2c2cnn(Cc3ncoc3C(N)=O)c(=O)c21
< 0.3 | 0.301 to 0.8 | ≤ 1 | < 0.3 | Cn1c2nc(Cc3cc[nH]n3)sc2c2cnn(Cc3ccc(C#N)cn3)c(=O)c21
> 0.8 | 0.301 to 0.8 | ≤ 1 | < 0.3 | Cn1c2nc(Cc3cc[nH]n3)sc2c2cnn(Cc3ccc(C(N)=O)cn3)c(=O)c21
< 0.3 | < 0.3 | ≤ 1 | < 0.3 | Cn1c2nc(Cc3cc[nH]n3)sc2c2cnn(Cc3cccc(C(N)=O)n3)c(=O)c21
< 0.3 | < 0.3 | ≤ 1 | < 0.3 | Cn1c2nc(Cc3cc[nH]n3)sc2c2cnn(Cc3cccc(C#N)n3)c(=O)c21
< 0.3 | < 0.3 | ≤ 1 | < 0.3 | Cn1c2nc(Cc3cc[nH]n3)sc2c2cnn(Cc3ncc(N)s3)c(=O)c21
